Measurements reported in US20100184703A1, “USE OF PEPTIDE DERIVATIVES FOR TREATING PATHOLOGIES RESULTING FROM ISCHEMIA” (CHIESI FARMACEUTICI S.p.A., priority 2007, published 2010).
Peptide text beside a SMILES is read from it. * marks the point of attachment. X1 = COC(=O)CC(N*)C(=O)COc1c(F)cccc1F; Quinaldoyl = O=C(c1ccc2ccccc2n1)*

Experiments:
Assay type in all cases: in vivo, rat
[1] = system: ischemiated and re-perfused hearts; assay: Morphology of the hearts after ischemia-reperfusion; details: 30 min occlusion, IP injection 15 min before re-perfusion, 10 days after infarct
Protocol: In the case of reperfusion ischemia model (IR model), the silk wire was untied after 30 min of occlusion. The artery was then cleared and the myocardial territory reperfused. The control animals (sham operated) were submitted to the same surgery protocol as the above animals, but the silk wire was passed under the coronary without making any ligature.
The animals were sacrificed by a lethal injection of pentobarbital. The heart was excised and perfused 2-3 min. using Langendorf reverse route and a calcium-free washing solution (NaCl 117, KCl 5.7, NaHCO3 4.4, KH2PO4 1.5, MgCl2 1.7, HEPES 21, glucose 11, taurine 20, pH 7.2 adjusted to NaOH). The solution was then replaced by a PBS solution at 4% of PFA (about 10 ml). The heart was immersed in this fixation solution for about 1 h, and then washed with PBS 4%.
The animals were submitted to an occlusion of the left coronary artery during 30 min.
15 min before the re-perfusion, the animals were treated by an IP injection of D1 or DMSO. The animals were sacrificed after 72 h, 10 days after re-perfusion for an histological analysis of the hearts. The morphology of the hearts (PFA fixed 4%) 10 days after infarct is illustrated by FIG. 7.

caspase-3 = assay: Dosage of caspase-3 activity in myocardial tissue, chronic ischemia (PMI) model; details: PMI 72 h
Protocol: (§1) The analyses were performed on 2 myocardial ischemia models: a chronic ischemia model and an acute ischemia model, followed by myocardial reperfusion after 30 min of occlusion.
(§2) Said models were realized with Wistar male rats (180-220 g). The coronary artery was ligatured according to Pfeffer et al protocol.
(§3) Briefly, the rats were anaesthetized by intraperitoneal administration of a mixture of Ketamine (150 mg/kg) and Xylazine (15 mg/kg), then intubated and mechanically ventilated. The animals were submitted to a left and median thoracotomy. An occlusion of the coronary artery was done with a silk wire (size: 7.0) at the more proximal point and below the auricle.
(§4) In the case of chronic ischemia, the ligature was maintained and the rib cage of the animal reclosed (PMI model for post myocardial infarction).
The animals were sacrificed by a pentobarbital lethal injection. […]
The supernatant was taken and divided into 2 tubes for of each sample. The tubes were placed at −80° C. before performing the spectrophotometric proteic dosage (BCA: cupper (II) sulphate+solution A of bicinchronic acid, DO measured at 550 nm) in transparent, with flat bottom, 96-well plates. […]

[2] = system: rats with permanent ligature of the left coronary artery (PMI); assay: Survival of animals after chronic ischemia (PMI); details: intraperitoneal injection 5-15 min before occlusion
Protocol: as §1, §2, §3, §4
The effect of the blocking of the caspase activity by Q-VD-OPH or by D1 on animals survival […] after infarction are given on FIG. 3. (A) over a period of 140 days; (B) the injection of the inhibitors or vehicle (DMSO) was carried out by intraperitoneal route 5-15 min before the occlusion of the coronary artery.
The animals having undergone a permanent ligature of the left coronary artery (PMI) were maintained alive during 4-5 months before performing the in vivo and ex vivo functional exploration. The death of the animals during this period was followed up.

COC(=O)CC(NC(=O)[C@H](C)NC(=O)[C@@H](NC(=O)[C@H](CC(=O)OC)NC(=O)[C@@H](NC(=O)c1ccc2ccccc2n1)C(C)C)C(C)C)C(=O)COc1c(F)cccc1F (stereo partly drawn) [D1, (3S,6S,9S,12S)-methyl 15-(2-(2,6-difluorophenoxy)acetyl)-3,9-diisopropyl-6-(2-methoxy-2-oxoethyl)-12-methyl-1,4,7,10,13-pentaoxo-1-(quinolin-2-yl)-2,5,8,11,14-pentaazaheptadecan-17-oate] (Quinaldoyl-VD(OMe)VA-X1)
heart size (cardiac hypertrophy) [1]: prevents cardiac hypertrophy | caspase-3 activity (caspase-3; pre-treated rats, 0.01 or 1 mg/kg): inhibition of the caspase-3 activity | caspase-3 basal activity (caspase-3; right ventricular (RV)): weak inhibition

CC(C)[C@H](NC(=O)c1ccc2ccccc2n1)C(=O)N[C@@H](CC(=O)O)C(=O)COc1c(F)cccc1F [Q-VD-OPH]
animal survival over about 140 days post-infarctus [2]: survival curve superimposes on the one of the PMI group
